In this assay the test system is Leishmania infantum MHOM/MA(BE)/67. As to the kind of experiment: Leishmania infantum macrophage screening assay, primary screen. It counts as cell-based. The conditions noted are these: 120 h, amastigotes in primary peritoneal mouse macrophages, 5 days incubation, % reduction in parasite burden, reference drugs, read-out: IC50 (50% inhibitory concentration). The protocol: Parasite and Cell Cultures. Two Leishmania species (L. infantum MHOM/MA(BE)/67 and L. donovani MHOM/ET/67/L82) were used. The strains were maintained in the Golden Hamster (Mesocricetus auratus). Amastigotes were collected from the spleen of an infected donor hamster using three centrifugation purification steps (300 rpm, keeping the supernatant, 2200 rpm, keeping the supernatants and 3500 rpm, keeping the pellet) and spleen parasite burdens were assessed using the Stauber technique (Stauber L A., Exp Parasitol. 18: 1-11 (1966)). Primary peritoneal mouse macrophages were used as host cell and were collected 2 days after peritoneal stimulation with a 2% potato starch suspension. All cultures and assays were conducted at 37° C. under an atmosphere of 5% CO2.
Compound Solutions/Dilutions. Compound stock solutions were prepared in 100% DMSO at 20 mM or mg/ml. Concentrations were standard and expressed in molar concentrations, except for natural products, drug mixtures and if the molecular weight was not known. […]
Drug Sensitivity Assays. […] After 5 days incubation, parasite burdens (mean number of amastigotes/macrophage) were microscopically assessed after staining the cells with a 10% Giemsa solution. The results were expressed as % reduction in parasite burden compared to untreated control wells and an IC50 (50% inhibitory concentration) was calculated. […]

Each structure is given as a SMILES string. pIC50: −log10 of the molar value.

With `CCCCCCCCCCCCCCCCOP(=O)([O-])OCC[N+](C)(C)C` [miltefosin], the pIC50 was 5.37.

(Values after patent US9346834B2, “Boron-containing small molecules as antiprotozoal agents” (Anacor Pharmaceuticals, Inc., priority 2009, dated 2016).)
